Source: US20230024096A1, “BIFUNCTIONAL COMPOUNDS FOR THE TREATMENT OF CANCER” (Hoffmann-La Roche Inc., priority 2019, published 2023)

Biological target: T1, SMARCA2 (Homo sapiens, UniProt P51531)
T1 construct: endogenous in cells; host or cells: HT1080 (CRISPR HiBiT knock-in clone, generated in house)
Assay: SMARCA2 HiBiT degradation assay (cellular)
Type: cell-based
Details: table head names A549; for DC50: 6 h incubation, HiBiT-tagged SMARCA2, luminescence read-out, read-out: HiBit A549 SMARCA2 IP (nM) 6 h; for Emax: A549, 6 h incubation, Emax = amount of residual protein remaining in the cell following compound treatment

T1 sequence (P51531 whole entry): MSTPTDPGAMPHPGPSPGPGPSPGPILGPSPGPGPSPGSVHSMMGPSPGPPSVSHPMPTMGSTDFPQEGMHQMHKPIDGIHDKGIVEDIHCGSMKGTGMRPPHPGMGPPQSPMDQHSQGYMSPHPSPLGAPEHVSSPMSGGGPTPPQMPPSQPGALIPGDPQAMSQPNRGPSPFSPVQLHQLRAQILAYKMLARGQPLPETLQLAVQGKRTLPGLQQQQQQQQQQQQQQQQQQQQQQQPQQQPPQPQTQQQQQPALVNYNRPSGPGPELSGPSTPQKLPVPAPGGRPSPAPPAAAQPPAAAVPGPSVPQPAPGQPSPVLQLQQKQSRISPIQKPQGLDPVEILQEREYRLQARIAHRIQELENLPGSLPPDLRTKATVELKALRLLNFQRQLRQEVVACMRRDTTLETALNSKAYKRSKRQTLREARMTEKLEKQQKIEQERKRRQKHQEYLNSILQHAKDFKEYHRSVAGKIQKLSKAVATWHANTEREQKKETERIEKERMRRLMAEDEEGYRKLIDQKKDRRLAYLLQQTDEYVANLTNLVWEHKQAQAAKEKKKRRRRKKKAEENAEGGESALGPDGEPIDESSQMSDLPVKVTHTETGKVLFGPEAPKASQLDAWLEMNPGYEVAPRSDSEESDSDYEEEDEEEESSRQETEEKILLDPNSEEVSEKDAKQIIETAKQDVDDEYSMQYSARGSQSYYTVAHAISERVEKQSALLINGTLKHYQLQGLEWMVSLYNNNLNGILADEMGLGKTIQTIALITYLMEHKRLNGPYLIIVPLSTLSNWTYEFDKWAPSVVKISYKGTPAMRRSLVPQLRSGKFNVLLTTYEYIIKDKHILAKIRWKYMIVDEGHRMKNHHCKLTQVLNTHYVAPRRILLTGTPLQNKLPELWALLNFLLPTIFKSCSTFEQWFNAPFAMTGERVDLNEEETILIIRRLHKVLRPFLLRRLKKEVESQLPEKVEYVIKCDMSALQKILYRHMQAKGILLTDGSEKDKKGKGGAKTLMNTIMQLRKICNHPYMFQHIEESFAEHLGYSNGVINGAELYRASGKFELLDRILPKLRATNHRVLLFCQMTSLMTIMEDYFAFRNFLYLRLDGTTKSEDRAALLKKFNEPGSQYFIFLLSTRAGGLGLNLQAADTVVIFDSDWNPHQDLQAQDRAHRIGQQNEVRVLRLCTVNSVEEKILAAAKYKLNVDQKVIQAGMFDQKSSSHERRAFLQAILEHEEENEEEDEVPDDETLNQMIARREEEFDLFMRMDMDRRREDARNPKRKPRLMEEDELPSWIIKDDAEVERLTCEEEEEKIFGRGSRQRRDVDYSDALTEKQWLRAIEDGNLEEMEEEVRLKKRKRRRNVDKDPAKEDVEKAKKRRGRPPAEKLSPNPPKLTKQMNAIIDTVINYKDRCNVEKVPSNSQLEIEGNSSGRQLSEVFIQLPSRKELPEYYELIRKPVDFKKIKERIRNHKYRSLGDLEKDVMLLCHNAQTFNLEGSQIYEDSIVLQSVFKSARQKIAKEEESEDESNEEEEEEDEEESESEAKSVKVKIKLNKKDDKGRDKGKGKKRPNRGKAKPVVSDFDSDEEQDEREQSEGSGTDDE

SMILES | DC50 [nM] | Emax [%]
Nc1nnc(-c2ccccc2O)cc1N1CC2CCC(C1)N2c1cccc(OCCN2CCN(CCCOC3CCN(c4ccc5c(c4)C(=O)N(C4CCC(=O)NC4=O)C5=O)CC3)CC2)c1 (racemic) [Example 36, rac-5-[4-[3-[4-[2-[3-[3-[3-amino-6-(2-hydroxyphenyl)pyridazin-4-yl]-3,8-diazabicyclo[3.2.1]octan-8-yl]phenoxy]ethyl]piperazin-1-yl]propoxy]-1-piperidyl]-2-(2,6-dioxo-3-piperidyl)isoindoline-1,3-dione] | 16 | 27
Nc1nnc(-c2ccccc2O)cc1N1CCC(C(=O)NCC2CCN(CC3CCN(c4ccc5c(c4)C(=O)N(C4CCC(=O)NC4=O)C5=O)CC3)CC2)(c2ccccc2)CC1 (centres unmarked) [Example 100, 1-(3-amino-6-(2-hydroxyphenyl)pyridazin-4-yl)-N-((1-((1-(2-(2,6-dioxopiperidin-3-yl)-1,3-dioxoisoindolin-5-yl)piperidin-4-yl)methyl)piperidin-4-yl)methyl)-4-phenylpiperidine-4-carboxamide] | 104 | 30
Nc1nnc(-c2ccccc2O)cc1N1CC2CCC(C1)N2c1cccc(CN2CCN(C(=O)CN3CCC(c4ccc(NC5CCC(=O)NC5=O)cc4)CC3)CC2)c1 (racemic) [Example 149, rac-3-[4-[1-[2-[4-[[3-[3-[3-Amino-6-(2-hydroxyphenyl)pyridazin-4-yl]-3,8-diazabicyclo[3.2.1]octan-8-yl]phenyl]methyl]piperazin-1-yl]-2-oxo-ethyl]-4-piperidyl]anilino]piperidine-2,6-dione] | 18 | 40
Nc1nnc(-c2ccccc2O)cc1O[C@@H]1CCCN(c2ccc(N3CCN(CCCCCCCCCn4cc(CNc5cccc6c5C(=O)N(C5CCC(=O)NC5=O)C6=O)nn4)CC3)cc2)C1 (stereo partly drawn) [Example 63, 4-[[1-[9-[4-[4-[(3R)-3-[3-amino-6-(2-hydroxyphenyl)pyridazin-4-yl]oxy-1-piperidyl]phenyl]piperazin-1-yl]nonyl]triazol-4-yl]methylamino]-2-(2,6-dioxo-3-piperidyl)isoindoline-1,3-dione] | 59 | 27
Nc1nnc(-c2ccccc2O)cc1N1CCC(C(=O)N2CC3(CN(CC4CCN(c5ccc6c(c5)C(=O)N(C5CCC(=O)NC5=O)C6=O)CC4)C3)C2)(c2ccccc2)CC1 (centres unmarked) [Example 159, 5-(4-((6-(1-(3-amino-6-(2-hydroxyphenyl)pyridazin-4-yl)-4-phenylpiperidine-4-carbonyl)-2,6-diazaspiro[3.3]heptan-2-yl)methyl)piperidin-1-yl)-2-(2,6-dioxopiperidin-3-yl)isoindoline-1,3-dione] | 11 | 27
Nc1nnc(-c2ccccc2O)cc1N1CC2CCC(C1)N2c1cccc(OCCN2CCN(C(=O)CCNC(=O)C3CCN(c4ccc5c(c4)C(=O)N(C4CCC(=O)NC4=O)C5=O)CC3)CC2)c1 (racemic) [Example 42, rac-N-[3-[4-[2-[3-[3-[3-amino-6-(2-hydroxyphenyl)pyridazin-4-yl]-3,8-diazabicyclo[3.2.1]octan-8-yl]phenoxy]ethyl]piperazin-1-yl]-3-oxo-propyl]-1-[2-(2,6-dioxo-3-piperidyl)-1,3-dioxo-isoindolin-5-yl]piperidine-4-carboxamide] | 519 | 49
Nc1nnc(-c2ccccc2O)cc1N1CCC(C(=O)NCC2CCN(C(=O)CN3CCC(c4ccc(OC5CCC(=O)NC5=O)cc4)CC3)CC2)(c2ccccc2)CC1 (centres unmarked) [Example 101, 1-(3-amino-6-(2-hydroxyphenyl)pyridazin-4-yl)-N-((1-(2-(4-(4-((2,6-dioxopiperidin-3-yl)oxy)phenyl)piperidin-1-yl)acetyl)piperidin-4-yl)methyl)-4-phenylpiperidine-4-carboxamide] | 102 | 28
CCC(Nc1cccc2c1C(=O)N(C1CCC(=O)NC1=O)C2=O)c1cn(CCCCCCCCCN2CCN(c3ccc(N4CCC[C@H](Oc5cc(-c6ccccc6O)nnc5N)C4)cc3)CC2)nn1 (mixture of isomers) [Example 203, 2-(2,6-dioxo-3-piperidyl)-4-[1-[1-[9-[4-[4-[rac-(3S)-3-[3-amino-6-(2-hydroxyphenyl)pyridazin-4-yl]oxy-1-piperidyl]phenyl]piperazin-1-yl]nonyl]triazol-4-yl]propylamino]isoindoline-1,3-dione] | 216 | 28
Nc1nnc(-c2ccccc2O)cc1N1CCC2(CC1)CN(C(=O)CCC1CCN(c3cccc4c3C(=O)N(C3CCC(=O)NC3=O)C4=O)CC1)CCO2 (centres unmarked) [Example 2, 4-[4-[3-[9-[3-amino-6-(2-hydroxyphenyl)pyridazin-4-yl]-1-oxa-4,9-diazaspiro[5.5]undecan-4-yl]-3-oxo-propyl]-1-piperidyl]-2-(2,6-dioxo-3-piperidyl)isoindoline-1,3-dione] | 550 | 53
Nc1nnc(-c2ccccc2O)cc1OC1CCCN(c2ccc(N3CCN(C(=O)CCCCCCCCCCn4cc(CNc5cccc6c5C(=O)N(C5CCC(=O)NC5=O)C6=O)nn4)CC3)cc2)C1 (centres unmarked) [Example 29, 4-[[1-[11-[4-[4-[3-[3-amino-6-(2-hydroxyphenyl)pyridazin-4-yl]oxy-1-piperidyl]phenyl]piperazin-1-yl]-11-oxo-undecyl]triazol-4-yl]methylamino]-2-(2,6-dioxo-3-piperidyl)isoindoline-1,3-dione] | 158 | 50
Nc1nnc(-c2ccccc2O)cc1N1CCC(C(=O)N2CCN(C(=O)C3CCN(c4ccc5c(c4)C(=O)N(C4CCC(=O)NC4=O)C5=O)CC3)CC2)(c2ccccc2)CC1 (centres unmarked) [Example 120, 5-(4-(4-(1-(3-amino-6-(2-hydroxyphenyl)pyridazin-4-yl)-4-phenylpiperidine-4-carbonyl)piperazine-1-carbonyl)piperidin-1-yl)-2-(2,6-dioxopiperidin-3-yl)isoindoline-1,3-dione] | 31 | 28
Nc1nnc(-c2ccccc2O)cc1N1CCC(CNC(=O)C2CCN(c3ccc4c(c3)C(=O)N(C3CCC(=O)NC3=O)C4=O)CC2)(c2ccccc2)CC1 (centres unmarked) [Example 74, N-((1-(3-amino-6-(2-hydroxyphenyl)pyridazin-4-yl)-4-phenylpiperidin-4-yl)methyl)-1-(2-(2,6-dioxopiperidin-3-yl)-1,3-dioxoisoindolin-5-yl)piperidine-4-carboxamide] | 70 | 46
Nc1nnc(-c2ccccc2O)cc1N1CC2CCC(C1)N2c1cccc(OCCN2CCN(C(=O)CC3CCN(c4cccc5c4C(=O)N(C4CCC(=O)NC4=O)C5=O)CC3)CC2)c1 (racemic) [Example 15, rac-4-[4-[2-[4-[2-[3-[3-[3-amino-6-(2-hydroxyphenyl)pyridazin-4-yl]-3,8-diazabicyclo[3.2.1]octan-8-yl]phenoxy]ethyl]piperazin-1-yl]-2-oxo-ethyl]-1-piperidyl]-2-(2,6-dioxo-3-piperidyl)isoindoline-1,3-dione] | 35 | 52
Nc1nnc(-c2cc(F)ccc2O)cc1N1C2CCC1CN(c1cccc(OCCN3CCN(C(=O)C4CCN(c5ccc6c(c5)C(=O)N(C5CCC(=O)NC5=O)C6=O)CC4)CC3)c1)C2 (centres unmarked) [Example 160, 5-[4-[4-[2-[3-[8-[3-amino-6-(5-fluoro-2-hydroxy-phenyl)pyridazin-4-yl]-3,8-diazabicyclo[3.2.1]octan-3-yl]phenoxy]ethyl]piperazine-1-carbonyl]-1-piperidyl]-2-(2,6-dioxo-3-piperidyl)isoindoline-1,3-dione] | 144 | 74
Nc1nnc(-c2ccccc2O)cc1OC1CCCN(c2ccc(N3CCN(C(=O)CCCCCCCCn4cc(CNc5cccc6c5C(=O)N(C5CCC(=O)NC5=O)C6)nn4)CC3)cc2)C1 (centres unmarked) [Example 111, 3-[7-[[1-[9-[4-[4-[3-[3-amino-6-(2-hydroxyphenyl)pyridazin-4-yl]oxy-1-piperidyl]phenyl]piperazin-1-yl]-9-oxo-nonyl]triazol-4-yl]methylamino]-1-oxo-isoindolin-2-yl]piperidine-2,6-dione] | 177 | 60
Nc1nnc(-c2ccccc2O)cc1N1CC2CCC(C1)N2c1cccc(CN2CCC(C(=O)N3CCC(Oc4ccc5c(c4)C(=O)N(C4CCC(=O)NC4=O)C5=O)CC3)CC2)c1 (racemic) [Example 96, rac-5-[[1-[1-[[3-[3-[3-amino-6-(2-hydroxyphenyl)pyridazin-4-yl]-3,8-diazabicyclo[3.2.1]octan-8-yl]phenyl]methyl]piperidine-4-carbonyl]-4-piperidyl]oxy]-2-(2,6-dioxo-3-piperidyl)isoindoline-1,3-dione] | 7 | 27
Nc1nnc(-c2ccccc2O)cc1N1CC2CCC(C1)N2c1cccc(OCCN2CCN(C(=O)N3CC4(C3)CN(c3ccc5c(c3)C(=O)N(C3CCC(=O)NC3=O)C5=O)C4)CC2)c1 (racemic) [Example 69, rac-5-[2-[4-[2-[3-[3-[3-amino-6-(2-hydroxyphenyl)pyridazin-4-yl]-3,8-diazabicyclo[3.2.1]octan-8-yl]phenoxy]ethyl]piperazine-1-carbonyl]-2,6-diazaspiro[3.3]heptan-6-yl]-2-(2,6-dioxo-3-piperidyl)isoindoline-1,3-dione] | 16 | 48
Nc1nnc(-c2ccccc2O)cc1N1CC2CCC(C1)N2c1cccc(CN2CCN(C(=O)C3CCN(c4ccc5c(c4)C(=O)N(C4CCC(=O)NC4=O)C5=O)CC3)CC2)c1 (racemic) [Example 46, rac-5-[4-[4-[[3-[3-[3-Amino-6-(2-hydroxyphenyl)pyridazin-4-yl]-3,8-diazabicyclo[3.2.1]octan-8-yl]phenyl]methyl]piperazine-1-carbonyl]-1-piperidyl]-2-(2,6-dioxo-3-piperidyl)isoindoline-1,3-dione] | 12 | 24
Nc1nnc(-c2ccccc2O)cc1N1CC2CCC(C1)N2c1cccc(OC2CCN(C(=O)CN3CCC(c4ccc(NC5CCC(=O)NC5=O)cc4)CC3)CC2)c1 (racemic) [Example 114, rac-3-[4-[1-[2-[4-[3-[3-[3-amino-6-(2-hydroxyphenyl)pyridazin-4-yl]-3,8-diazabicyclo[3.2.1]octan-8-yl]phenoxy]-1-piperidyl]-2-oxo-ethyl]-4-piperidyl]anilino]piperidine-2,6-dione] | 82 | 40
